The values below come from publication PMC3726336, “Product inhibition of cellulases studied with ^14C-labeled cellulose substrates” (Biotechnology for Biofuels, 2013).

Molecules are shown by their SMILES.

Experiment [1] concerns the target T1, TrCel6A (Trichoderma reesei, UniProt P07987).
T1 construct: TrCel6A was purified from the culture filtrate of Tr QM 9414 as described previously; made in house; host or cells: Trichoderma reesei QM 9414 culture filtrate (native producer)
Briefly: Cellobiose inhibition of synergistic hydrolysis of 14C-BC by TrCel6A and EG TrCel5A. Format: biochemical. An excerpt: Here, we characterized the cellobiose and glucose inhibition of TrCel6A and its thermophilic counterpart, CtCel6A [9, 63]. First, the cellobiose inhibition of the synergistic hydrolysis of ^14C-BC by TrCel6A and TrCel5A was studied (Figure 7A). As TrCel6A was less sensitive to cellobiose inhibition than TrCel7A, the contribution of the cellobiose released during hydrolysis was not significant, and an average (DCB/DCB=0) over all time points was used in plotting (DCB/DCB=0) versus [cellobiose] (Figure 7D). No significant systematic variation of DCB/DCB=0 depending on hydrolysis time was observed. As in the case of GH7 CBHs, the IC50 value was found using Equations 5 and 6. Because the IC50 value for synergistic hydrolysis (Table 3) was of the same order as the apparent Ki value reported for TrCel5A [31], we further tested the inhibition of individual TrCel6A. BC is not a good substrate for TrCel6A, but its acid-treated derivative, BMCC, is readily degraded by the enzyme. Therefore, we prepared ^14C-BMCC by the heterogeneous acid hydrolysis of ^14C-BC. Without supplied cellobiose, both enzymes had similar activity with the ^14C-BMCC substrate, but CtCel6A was somewhat more resistant to cellobiose inhibition (Figure 7D, Table 3). The IC50 value for TrCel6A by itself was similar to that found for the synergistic hydrolysis. […]

The target of experiment [2] is T2, TrCel7B (Trichoderma reesei, UniProt P07981).
T2 construct: TrCel7B, TrCel5A, and TrCel12A were purified from the culture filtrate of Tr QM 9414; made in house; host or cells: Trichoderma reesei QM 9414 culture filtrate (native producer)
T2 sequence (P07981 23-459): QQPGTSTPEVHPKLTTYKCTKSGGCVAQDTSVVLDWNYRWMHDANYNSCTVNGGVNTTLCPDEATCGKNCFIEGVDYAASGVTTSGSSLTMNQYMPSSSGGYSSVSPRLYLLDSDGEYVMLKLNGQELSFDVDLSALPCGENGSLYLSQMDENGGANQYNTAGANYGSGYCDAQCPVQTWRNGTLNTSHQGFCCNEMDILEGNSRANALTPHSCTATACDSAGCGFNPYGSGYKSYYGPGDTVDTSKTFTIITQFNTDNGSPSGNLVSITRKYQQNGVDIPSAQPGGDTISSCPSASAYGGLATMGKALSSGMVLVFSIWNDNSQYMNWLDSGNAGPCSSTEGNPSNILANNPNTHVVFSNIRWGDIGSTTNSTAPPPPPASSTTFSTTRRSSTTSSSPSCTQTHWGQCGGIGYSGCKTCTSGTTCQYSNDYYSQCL
The arrangement: method as in PMID 15129433. The settings on record: 3H-reduced amorphous cellulose substrate, read-out: apparent Ki value; cited from earlier work.

For experiment [3], the target named is T3, TrCel7A (Trichoderma reesei, UniProt P62694).
T3 construct: TrCel7A was purified from the culture filtrate of Tr QM 9414 as described previously; made in house; host or cells: Trichoderma reesei QM 9414 culture filtrate (native producer)
T3 sequence (P62694 18-513): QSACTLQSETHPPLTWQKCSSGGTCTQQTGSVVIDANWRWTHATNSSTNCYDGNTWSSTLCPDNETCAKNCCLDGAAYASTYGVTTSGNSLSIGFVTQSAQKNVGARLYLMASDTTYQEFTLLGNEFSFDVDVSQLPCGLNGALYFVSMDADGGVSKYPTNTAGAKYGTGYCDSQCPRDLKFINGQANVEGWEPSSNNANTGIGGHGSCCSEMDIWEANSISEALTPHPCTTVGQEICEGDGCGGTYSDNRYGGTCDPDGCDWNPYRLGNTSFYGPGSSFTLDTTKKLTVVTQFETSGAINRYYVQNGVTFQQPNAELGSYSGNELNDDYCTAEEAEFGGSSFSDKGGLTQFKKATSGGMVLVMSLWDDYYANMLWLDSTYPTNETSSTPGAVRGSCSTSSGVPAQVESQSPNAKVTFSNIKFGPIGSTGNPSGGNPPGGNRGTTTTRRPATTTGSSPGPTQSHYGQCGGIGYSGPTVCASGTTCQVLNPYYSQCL
Briefly: Inhibition of synergistic hydrolysis of 14C-BC by TrCel7A (supplemented with EG TrCel5A). In kind it is biochemical. The conditions noted are these: IC50 for cellobiose, 14C-BC substrate, average over time points. The protocol: To study the cellobiose inhibition of GH7 CBHs, the synergistic hydrolysis of ^14C-BC in the presence of added cellobiose was followed (Figure 3, Additional file 1: Figures S1 and S2). Because the cellobiose inhibition of the EG TrCel5A is much weaker than that of GH7 CBHs, the inhibition of synergistic hydrolysis apparently reflects the inhibition of CBH. The strength of cellobiose inhibition was analyzed using plots of (DCB/DCB=0) versus [cellobiose], where DCB and DCB=0 represent the degree of conversion of ^14C-BC in the presence and absence of cellobiose, respectively (Figure 4, Additional file 1: Figure S3). […]
where [CB] is the concentration of cellobiose; [^14CBC] is the concentration of ^14C-BC used in the experiment; and C1, C2 and H are empirical constants. Equation 5 differs from Equation 1 by the presence of constant H. H was included to improve the fit and is a constant that accounts for the background radioactivity (the degree of conversion that is independent of CBH). The degree of conversion resulting from the activity of the EG was measured in a separate experiment (Additional file 1: Figure S4) and was subtracted from the degree of conversion resulting from the synergistic hydrolysis. […] Provided with the values of C1, C2 and H, the value of IC50 was calculated as follows: […]

T1 sequence (P07987 25-471): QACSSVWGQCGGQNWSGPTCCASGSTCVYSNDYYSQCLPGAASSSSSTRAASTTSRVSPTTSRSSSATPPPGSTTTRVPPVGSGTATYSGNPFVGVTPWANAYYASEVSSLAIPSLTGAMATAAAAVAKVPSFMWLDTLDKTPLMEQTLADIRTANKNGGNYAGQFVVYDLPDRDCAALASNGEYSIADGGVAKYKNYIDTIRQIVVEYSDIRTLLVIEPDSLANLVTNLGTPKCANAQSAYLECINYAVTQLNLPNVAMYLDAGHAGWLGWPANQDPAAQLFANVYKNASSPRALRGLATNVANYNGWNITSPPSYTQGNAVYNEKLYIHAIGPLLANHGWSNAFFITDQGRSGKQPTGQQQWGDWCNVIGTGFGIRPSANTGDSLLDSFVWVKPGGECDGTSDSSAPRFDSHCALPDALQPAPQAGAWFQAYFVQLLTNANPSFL

Consider `O=C[C@H](O)[C@@H](O)[C@H](O[C@@H]1O[C@H](CO)[C@@H](O)[C@H](O)[C@H]1O)[C@H](O)CO` [cellobiose, Cellobiose], for which the IC50 in experiment [1] was found to be 16 ± 0.5 mM; in experiment [3] (35°C, IC50 increased with hydrolysis time) it was 0.68 ± 0.24 mM; in experiment [3] (50°C), 2.61 ± 0.1 mM. Moreover, the Ki in experiment [2] was 11 ± 3 mM.
